Experimental data as given in PMC7304060, “Broad Spectrum Deubiquitinase Inhibition Induces Both Apoptosis and Ferroptosis in Cancer Cells” (Frontiers in Oncology, 2020).
Peptide text beside a SMILES is read from it.

Molecular target: T1, 20S proteasome (chymotrypsin-like peptidase) (Homo sapiens, UniProt P28074)
T1 construct: gene PSMB5; purified human 20S proteasome; chymotrypsin-like site (beta5, with beta6 contact)
T1 sequence (P28074 60-263): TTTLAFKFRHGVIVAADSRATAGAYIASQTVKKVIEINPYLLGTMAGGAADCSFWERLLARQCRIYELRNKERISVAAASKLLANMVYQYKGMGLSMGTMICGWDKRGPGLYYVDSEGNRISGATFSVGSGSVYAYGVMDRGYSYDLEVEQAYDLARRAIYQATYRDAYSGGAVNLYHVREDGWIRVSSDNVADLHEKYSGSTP
T1 sequence (P20618 29-241 partner): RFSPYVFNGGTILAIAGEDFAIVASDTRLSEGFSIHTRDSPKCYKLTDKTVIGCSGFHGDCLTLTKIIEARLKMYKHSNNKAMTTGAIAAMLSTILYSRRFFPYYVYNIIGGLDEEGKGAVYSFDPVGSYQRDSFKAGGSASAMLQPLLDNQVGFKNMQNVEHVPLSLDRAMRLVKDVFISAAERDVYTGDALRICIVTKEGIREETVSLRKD
Experiment: fluorogenic peptidase assay
Type: biochemical
Details: 37 °C; chymotrypsin-like site

Cc1cc(=O)oc2cc(NC(=O)[C@H](Cc3ccc(O)cc3)NC(=O)[C@@H](NC(=O)[C@H](CC(C)C)NC(=O)[C@H](CC(C)C)NC(=O)CCC(=O)O)C(C)C)ccc12 [Suc-LLVY-AMC, Suc-Leu-Leu-Val-Tyr-aminomethylcoumarin] (HELM PEPTIDE1{[O=C(O)CCC(=O)[*:2]].L.L.V.Y.[Cc1cc(=O)oc2cc(N[*:1])ccc12]}$$$$V2.0)
fluorogenic peptidase assay: Chymotrypsin-like activity of the proteasome was assessed with fluorogenic Suc-LLVY-AMC substrate
